# Laboratory results: patent publication US10611730B2, “Benzimidazolone and benzothiazolone compounds and their use as AMPA receptor modulators” (Janssen Pharmaceutica NV, priority 2015, dated 2020)
# Target: TARP γ8 dependent AMPA receptor (GluA1o-g8 fusion channel) (Homo sapiens (Human), UniProt P42261+Q8WXS5)
# Test: Calcium flux assay (FLIPR), HEK293 cells expressing GRIA1o-CACNG8 fusion
# Assay type: cell-based
# Conditions: inhibition of calcium flux after 15 μM glutamate, read-out: GluR1-γ8 pIC50 (converted)
# Text: This assay was used to test compounds for their ability to inhibit TARP γ8 dependent AMPA receptor activity.
# An in vitro assay was used to determine the potency of test compounds as inhibitors of the glutamate response of the channel formed by GluA1o-g8. To ensure a 1:1 stoichiometry of GluA1o and g8 subunits in the expressed channel, a fusion of the cDNAs for GRIA1o and CACNG8 was used. […] A clonal cell line in HEK293 cells stably expressing this construct, with a geneticin selection marker, was generated for use in this assay. Cell expressing the GRIAlo-CACNG8 fusion construct were grown in a monolayer in 96- or 384-well microtiter plates. […] The cells were then loaded with a calcium-sensitive dye (Calcium-5 or Calcium-6, Molecular Devices) and the test compounds at a range of concentrations.
# The fluorescence in each well was normalized to the fluorescence of negative and positive control wells. […] The responses to glutamate as functions of the test compound concentrations were fitted to a four-parameter logistic function. The fitted parameter corresponding to the midpoint was taken to be the potency of inhibition of the compound.
# Chain of TARP γ8 dependent AMPA receptor (GluA1o-g8 fusion channel) (P42261 other isoform, or with tags, fused parts or gaps): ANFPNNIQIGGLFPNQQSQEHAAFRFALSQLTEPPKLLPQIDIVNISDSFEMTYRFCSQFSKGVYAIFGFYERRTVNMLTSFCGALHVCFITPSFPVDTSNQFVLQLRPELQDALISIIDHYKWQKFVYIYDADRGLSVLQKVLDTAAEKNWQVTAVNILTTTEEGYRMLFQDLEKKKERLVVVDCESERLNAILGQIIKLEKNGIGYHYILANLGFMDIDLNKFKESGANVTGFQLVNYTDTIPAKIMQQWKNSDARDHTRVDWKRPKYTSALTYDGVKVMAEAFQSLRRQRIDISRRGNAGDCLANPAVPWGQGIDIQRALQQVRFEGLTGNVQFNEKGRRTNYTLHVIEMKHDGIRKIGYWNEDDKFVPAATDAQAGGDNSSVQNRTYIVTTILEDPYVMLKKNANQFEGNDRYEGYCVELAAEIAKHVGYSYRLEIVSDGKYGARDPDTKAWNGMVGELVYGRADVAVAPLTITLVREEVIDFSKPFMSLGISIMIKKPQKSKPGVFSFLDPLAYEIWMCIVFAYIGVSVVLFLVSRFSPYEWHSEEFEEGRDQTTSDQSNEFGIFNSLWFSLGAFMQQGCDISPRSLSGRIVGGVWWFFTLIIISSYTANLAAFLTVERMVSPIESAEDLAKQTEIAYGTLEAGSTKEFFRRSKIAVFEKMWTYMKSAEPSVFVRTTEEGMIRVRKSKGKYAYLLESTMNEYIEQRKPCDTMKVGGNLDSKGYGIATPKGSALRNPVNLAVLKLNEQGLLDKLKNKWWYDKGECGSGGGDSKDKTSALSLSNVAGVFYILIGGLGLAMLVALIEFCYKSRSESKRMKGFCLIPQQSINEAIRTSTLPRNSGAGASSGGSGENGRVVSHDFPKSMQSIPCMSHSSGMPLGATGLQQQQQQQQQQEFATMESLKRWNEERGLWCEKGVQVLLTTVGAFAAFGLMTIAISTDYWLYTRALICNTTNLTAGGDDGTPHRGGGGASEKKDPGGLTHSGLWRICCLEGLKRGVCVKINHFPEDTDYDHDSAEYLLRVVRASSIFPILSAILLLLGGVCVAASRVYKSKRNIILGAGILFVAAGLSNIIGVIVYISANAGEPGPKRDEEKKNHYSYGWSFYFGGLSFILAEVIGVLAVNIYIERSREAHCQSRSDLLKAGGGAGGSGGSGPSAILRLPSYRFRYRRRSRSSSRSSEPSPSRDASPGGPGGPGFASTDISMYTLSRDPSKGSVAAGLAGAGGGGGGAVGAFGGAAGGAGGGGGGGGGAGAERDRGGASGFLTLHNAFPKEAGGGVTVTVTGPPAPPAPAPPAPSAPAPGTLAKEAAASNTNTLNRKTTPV
row,SMILES,IC50
1,"Cc1c(C(=O)N2CCOCC2)cccc1-c1ccc2[nH]c(=O)[nH]c2c1 [Example 82, 5-[2-Methyl-3-(morpholine-4-carbonyl)phenyl]-1,3-dihydrobenzimidazol-2-one]",5010 nM
2,"O=C(Nc1ccccc1)c1ccc(Cl)c(-c2ccc3[nH]c(=O)[nH]c3c2)c1 [Example 83, 4-Chloro-3-(2-oxo-1,3-dihydrobenzimidazol-5-yl)-N-phenyl-benzamide]",2510 nM
3,"O=C(c1ccc(Cl)c(-c2ccc3[nH]c(=O)[nH]c3c2)c1)N1CCCC1 [Example 84, 5-[2-Chloro-5-(pyrrolidine-1-carbonyl)phenyl]-1,3-dihydrobenzimidazol-2-one]",7940 nM
4,"O=C(c1ccc(Cl)c(-c2ccc3[nH]c(=O)[nH]c3c2)c1)N1CCCCC1 [Example 85, 5-[2-Chloro-5-(piperidine-1-carbonyl)phenyl]-1,3-dihydrobenzimidazol-2-one]",5010 nM
5,"O=c1[nH]c2ccc(-c3c(Cl)cccc3NCc3ccco3)cc2[nH]1 [Example 86, 5-[2-Chloro-6-(2-furylmethylamino)phenyl]-1,3-dihydrobenzimidazol-2-one]",158 nM
6,"O=c1[nH]c2ccc(-c3c(Cl)cccc3NCc3ccoc3)cc2[nH]1 [Example 87, 5-[2-Chloro-6-(3-furylmethylamino)phenyl]-1,3-dihydrobenzimidazol-2-one]",126 nM
7,"CC(C)Oc1cccc(OC(F)(F)F)c1-c1ccc2[nH]c(=O)[nH]c2c1 [Example 88, 5-[2-Isopropoxy-6-(trifluoromethoxy)phenyl]-1,3-dihydrobenzimidazol-2-one]",7.94 nM
8,"O=c1[nH]c2ccc(-c3c(OCC4CC4)cccc3OC(F)(F)F)cc2[nH]1 [Example 89, 5-[2-(Cyclopropylmethoxy)-6-(trifluoromethoxy)phenyl]-1,3-dihydrobenzimidazol-2-one]",3.98 nM
9,"O=c1[nH]c2ccc(-c3c(Cl)cccc3OCc3ccccc3)cc2[nH]1 [Example 99, 5-(2-Benzyloxy-6-chloro-phenyl)-1,3-dihydrobenzimidazol-2-one]",63.1 nM
10,"CC(C)(C)OC(=O)N1CC(Oc2cccc(Cl)c2-c2ccc3[nH]c(=O)[nH]c3c2)C1 [Example 100, tert-Butyl 3-[3-chloro-2-(2-oxo-1,3-dihydrobenzimidazol-5-yl)phenoxy]azetidine-1-carboxylate]",316 nM
11,"O=c1[nH]c2ccc(-c3c(Cl)cccc3Oc3cncs3)cc2[nH]1 [Example 101, 5-(2-Chloro-6-thiazol-5-yloxy-phenyl)-1,3-dihydrobenzimidazol-2-one]",316 nM
12,"COc1cccc(OCC(F)F)c1-c1ccc2[nH]c(=O)[nH]c2c1 [Example 102, 5-[2-(2,2-Difluoroethoxy)-6-methoxy-phenyl]-1,3-dihydrobenzimidazol-2-one]",398 nM
13,"COc1cccc(OCC(F)(F)F)c1-c1ccc2[nH]c(=O)[nH]c2c1 [Example 103, 5-[2-Methoxy-6-(2,2,2-trifluoroethoxy)phenyl]-1,3-dihydrobenzimidazol-2-one]",398 nM
14,"COc1cccc(OCC(C)(C)C)c1-c1ccc2[nH]c(=O)[nH]c2c1 [Example 104, 5-[2-(2,2-Dimethylpropoxy)-6-methoxy-phenyl]-1,3-dihydrobenzimidazol-2-one]",100 nM
15,"COc1cccc(OCc2ccccc2)c1-c1ccc2[nH]c(=O)[nH]c2c1 [Example 105, 5-(2-Benzyloxy-6-methoxy-phenyl)-1,3-dihydrobenzimidazol-2-one]",39.8 nM
16,COc1cccc(OCc2ccc(F)cc2)c1-c1ccc2[nH]c(=O)[nH]c2c1 [Example 106],39.8 nM
17,"CC(C)Oc1cccc(OC(C)C)c1-c1ccc2[nH]c(=O)[nH]c2c1 [Example 107, 5-(2,6-Diisopropoxyphenyl)-1,3-dihydrobenzimidazol-2-one]",63.1 nM
18,"CC(C)Oc1cccc(C(F)(F)F)c1-c1ccc2[nH]c(=O)[nH]c2c1 [Example 108, 5-[2-Isopropoxy-6-(trifluoromethyl)phenyl]-1,3-dihydrobenzimidazol-2-one]",79.4 nM
19,"O=c1[nH]c2ccc(-c3cccc(OC4CC4)c3Cl)cc2[nH]1 [Example 109, 5-[2-Chloro-3-(cyclopropoxy)phenyl]-1,3-dihydrobenzimidazol-2-one]",39.8 nM
20,"CC(C)Oc1cccc(-c2ccc3[nH]c(=O)[nH]c3c2)c1Cl [Example 110, 5-(2-Chloro-3-isopropoxy-phenyl)-1,3-dihydrobenzimidazol-2-one]",31.6 nM
21,"O=c1[nH]c2ccc(-c3cccc(OCC(F)F)c3Cl)cc2[nH]1 [Example 112, 5-[2-Chloro-3-(2,2-difluoroethoxy)phenyl]-1,3-dihydrobenzimidazol-2-one]",126 nM
22,"O=c1[nH]c2ccc(-c3cccc(OC(F)F)c3Cl)cc2[nH]1 [Example 113, 5-[2-Chloro-3-(difluoromethoxy)phenyl]-1,3-dihydrobenzimidazol-2-one]",79.4 nM
23,"CC(C)(C)OC(=O)N1CC(Oc2cccc(-c3ccc4[nH]c(=O)[nH]c4c3)c2Cl)C1 [Example 114, tert-Butyl 3-[2-chloro-3-(2-oxo-1,3-dihydrobenzimidazol-5-yl)phenoxy]azetidine-1-carboxylate]",200 nM
24,"CC(C)(C)Oc1cccc(Cl)c1-c1ccc2[nH]c(=O)[nH]c2c1 [Example 116, 5-(2-tert-Butoxy-6-chloro-phenyl)-1,3-dihydrobenzimidazol-2-one]",158 nM
25,"COc1cccc(OC(C)(C)C)c1-c1ccc2[nH]c(=O)[nH]c2c1 [Example 117, 5-(2-tert-Butoxy-6-methoxy-phenyl)-1,3-dihydrobenzimidazol-2-one]",1000 nM
26,"O=c1[nH]c2ccc(-c3c(Cl)cncc3Cl)cc2s1 [Example 134, 6-(3,5-Dichloro-4-pyridyl)-3H-1,3-benzothiazol-2-one]",63.1 nM

# Further lines, results first:
row,IC50,SMILES
1,251 nM,"O=c1[nH]c2ccc(-c3c(Cl)cccc3OC3CC3)cc2[nH]1 [Example 90, 5-[2-Chloro-6-(cyclopropoxy)phenyl]-1,3-dihydrobenzimidazol-2-one]"
2,79.4 nM,"CC(C)Oc1cccc(Cl)c1-c1ccc2[nH]c(=O)[nH]c2c1 [Example 91, 5-(2-Chloro-6-isopropoxy-phenyl)-1,3-dihydrobenzimidazol-2-one]"
3,10 nM,"O=c1[nH]c2ccc(-c3c(Cl)cccc3OCC3CC3)cc2[nH]1 [Example 92, 5-[2-Chloro-6-(cyclopropylmethoxy)phenyl]-1,3-dihydrobenzimidazol-2-one]"
4,31.6 nM,"O=c1[nH]c2ccc(-c3c(Cl)cccc3OC(F)F)cc2[nH]1 [Example 94, 5-[2-Chloro-6-(difluoromethoxy)phenyl]-1,3-dihydrobenzimidazol-2-one]"
5,50.1 nM,"O=c1[nH]c2ccc(-c3c(Cl)cccc3OCC(F)(F)F)cc2[nH]1 [Example 95, 5-[2-Chloro-6-(2,2,2-trifluoroethoxy)phenyl]-1,3-dihydrobenzimidazol-2-one]"
6,63.1 nM,"O=c1[nH]c2ccc(-c3c(Cl)cccc3OCC(F)F)cc2[nH]1 [Example 96, 5-[2-Chloro-6-(2,2-difluoroethoxy)phenyl]-1,3-dihydrobenzimidazol-2-one]"
7,316 nM,"N#CCOc1cccc(Cl)c1-c1ccc2[nH]c(=O)[nH]c2c1 [Example 97, 2-[3-Chloro-2-(2-oxo-1,3-dihydrobenzimidazol-5-yl)phenoxy]acetonitrile]"
8,50.1 nM,"CC(C)(C)COc1cccc(Cl)c1-c1ccc2[nH]c(=O)[nH]c2c1 [Example 98, 5-[2-Chloro-6-(2,2-dimethylpropoxy)phenyl]-1,3-dihydrobenzimidazol-2-one]"
9,2000 nM,"CC(C)Oc1c(Cl)cccc1-c1ccc2[nH]c(=O)[nH]c2c1 [Example 115, 5-(3-Chloro-2-isopropoxy-phenyl)-1,3-dihydrobenzimidazol-2-one]"
10,7.94 nM,"N#CCc1ccc(Cl)c(Cl)c1-c1ccc2[nH]c(=O)[nH]c2c1 [Example 122, 2-[3,4-Dichloro-2-(2-oxo-1,3-dihydrobenzimidazol-5-yl)phenyl]acetonitrile]"
11,25.1 nM,"CC(C)(C#N)c1cccc(Cl)c1-c1ccc2[nH]c(=O)[nH]c2c1 [Example 127, 2-[3-Chloro-2-(2-oxo-1,3-dihydrobenzimidazol-5-yl)phenyl]-2-methyl-propanenitrile]"
12,398 nM,"N#CC1(c2cccc(Cl)c2-c2ccc3[nH]c(=O)[nH]c3c2)CC1 [Example 128, 1-[3-Chloro-2-(2-oxo-1,3-dihydrobenzimidazol-5-yl)phenyl]cyclopropanecarbonitrile]"
13,794 nM,"N#CC1(c2cccc(Cl)c2-c2ccc3[nH]c(=O)[nH]c3c2)CCC1 [Example 129, 1-[3-Chloro-2-(2-oxo-1,3-dihydrobenzimidazol-5-yl)phenyl]cyclobutanecarbonitrile]"
14,2000 nM,"N#CCc1cccc(-c2ccc3[nH]c(=O)[nH]c3c2)c1Cl [Example 130, 2-[2-Chloro-3-(2-oxo-1,3-dihydrobenzimidazol-5-yl)phenyl]acetonitrile]"
15,2000 nM,"N#CCc1ccc(Cl)c(-c2ccc3[nH]c(=O)[nH]c3c2)c1Cl [Example 131, 2-[2,4-Dichloro-3-(2-oxo-1,3-dihydrobenzimidazol-5-yl)phenyl]acetonitrile]"
16,31.6 nM,"N#CCc1cccc(Br)c1-c1ccc2[nH]c(=O)[nH]c2c1 [Example 132, 2-[3-Bromo-2-(2-oxo-1,3-dihydrobenzimidazol-5-yl)phenyl]acetonitrile]"
17,3.16 nM,"N#CCc1cccc(Cl)c1-c1ccc2[nH]c(=O)sc2c1 [Example 133, 2-[3-Chloro-2-(2-oxo-3H-1,3-benzothiazol-6-yl)phenyl]acetonitrile]"
